These results are taken from ChEMBL document CHEMBL5108044, “Discovery of a Novel Potent STAT3 Inhibitor HP590 with Dual p-Tyr705/Ser727 Inhibitory Activity for Gastric Cancer Treatment” (J Med Chem, 2022).

Series [1] has as its target T1, Signal transducer and activator of transcription 3 (Homo sapiens, UniProt P40763). As to the kind of experiment: Inhibition of STAT3 phosphorylation at Ser727 residue in human AGS cells upto 40 nM incubated upto 24 hrs by Western blotting analysis. It counts as cell-based. (In general: Immunoblotting shows a protein as a band on a membrane.)
Series [2] has as its target T1, Signal transducer and activator of transcription 3. As to the kind of experiment: Binding affinity to human STAT3 (127 to 722 residues) assessed as dissociation constant by MST assay.
Series [3] concerns the target Proto-oncogene tyrosine-protein kinase Src (Homo sapiens, UniProt P12931). As to the kind of experiment: Inhibition of SRC (unknown origin).
Series [4] addresses T1, Signal transducer and activator of transcription 3. As to the kind of experiment: Inhibition of STAT3 in human MGC-803 cells assessed as downregulation of c-Myc expression incubated up to 24 hrs by western blot analysis. It counts as cell-based. Conditions: dose <= 40.0 nM, DDE = dose-dependent effect.
For series [5] the target is unchanged. As to the kind of experiment: Inhibition of STAT3 in human MKN-45 cells assessed as downregulation of c-myc expression at 10 to 40 nM incubated for 24 hrs by RT-PCR analysis. It counts as cell-based. The conditions noted are these: dose 10-40 nM.
The target is the same in series [6]. As to the kind of experiment: Inhibition of STAT3 in human GES1cells assessed as downregulation of Cyclin D1 expression at 10 to 40 nM incubated for 24 hrs by RT-PCR analysis. The conditions noted are these: GES1, dose 10-40 nM. The format is cell-based.
A further series deals with MKN-45. As to the kind of experiment: Antiproliferative activity against human MKN-45 cells assessed as cell viability incubated for 72 hrs by MTS assay. The format is functional, cell-based. The conditions noted are these: dose <= 100.0 nM, DDE = dose-dependent effect.
Series [7] is described as follows: Elimination half life in ICR mouse plasma at 10 mg/kg, po measured up to 24 hrs by LC-MS/MS analysis. It counts as ADME, organism-based. Conditions: read-out: beta t1/2 (converted).
A short description of series [8]: Toxicity in BALB/c nude mouse xenografted with human MKN-45 cells assessed as heart damage at 25 to 50 mg/kg, po qd administered for 5 weeks by H and E staining based analysis. It counts as organism-based. The conditions noted are these: in vivo, 840 h, dose 25-50 mg/kg. On the technique in general: A xenograft is tissue or cells of one species grown in another, often human tumour cells in immunodeficient mice.

Molecules are shown by their SMILES. Calls of active or inactive are those of the source. No cut-off for these calls is given here.

T1 sequence (P40763 whole entry, the tested form may be a part): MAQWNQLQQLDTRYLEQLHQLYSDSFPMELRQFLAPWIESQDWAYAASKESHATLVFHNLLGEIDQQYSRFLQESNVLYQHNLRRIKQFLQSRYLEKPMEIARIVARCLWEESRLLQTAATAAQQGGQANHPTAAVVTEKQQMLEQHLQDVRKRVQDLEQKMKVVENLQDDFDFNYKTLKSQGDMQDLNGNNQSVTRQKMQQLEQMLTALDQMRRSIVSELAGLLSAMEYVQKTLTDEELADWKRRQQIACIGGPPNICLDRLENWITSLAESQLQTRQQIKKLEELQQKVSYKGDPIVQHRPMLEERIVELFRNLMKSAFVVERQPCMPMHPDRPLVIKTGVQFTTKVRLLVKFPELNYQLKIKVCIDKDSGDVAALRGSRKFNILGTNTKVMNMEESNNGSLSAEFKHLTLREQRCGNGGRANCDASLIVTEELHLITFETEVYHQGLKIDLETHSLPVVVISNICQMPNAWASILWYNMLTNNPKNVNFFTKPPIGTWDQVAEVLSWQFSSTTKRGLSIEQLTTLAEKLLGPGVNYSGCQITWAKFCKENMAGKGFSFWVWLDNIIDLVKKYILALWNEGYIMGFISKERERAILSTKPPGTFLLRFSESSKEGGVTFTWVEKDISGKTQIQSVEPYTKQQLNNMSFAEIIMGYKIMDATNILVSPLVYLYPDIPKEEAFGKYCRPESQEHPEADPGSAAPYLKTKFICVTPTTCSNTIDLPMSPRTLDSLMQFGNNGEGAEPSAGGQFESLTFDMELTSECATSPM
Sequence of Proto-oncogene tyrosine-protein kinase Src (P12931 2-536 limits assumed): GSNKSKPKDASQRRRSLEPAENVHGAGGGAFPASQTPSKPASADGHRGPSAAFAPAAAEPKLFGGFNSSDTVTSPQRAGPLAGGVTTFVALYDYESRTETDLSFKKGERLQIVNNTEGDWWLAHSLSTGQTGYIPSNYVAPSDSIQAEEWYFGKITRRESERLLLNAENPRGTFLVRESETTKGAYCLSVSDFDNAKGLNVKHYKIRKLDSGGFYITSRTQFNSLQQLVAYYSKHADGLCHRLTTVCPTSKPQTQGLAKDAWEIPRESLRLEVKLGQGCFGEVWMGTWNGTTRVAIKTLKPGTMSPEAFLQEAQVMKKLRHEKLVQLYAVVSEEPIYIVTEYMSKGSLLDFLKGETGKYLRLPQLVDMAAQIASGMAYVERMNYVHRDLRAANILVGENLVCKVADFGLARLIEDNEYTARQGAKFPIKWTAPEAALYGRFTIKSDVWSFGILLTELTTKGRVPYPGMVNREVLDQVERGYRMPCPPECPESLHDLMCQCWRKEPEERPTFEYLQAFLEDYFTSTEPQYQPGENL

On to `O=C(c1ccc(-c2noc(-c3ccc(C(F)(F)F)cc3)n2)cc1)N1CCN(Cc2ccc(OCC(F)(F)F)cc2)CC1`, for which the inhibition is 100% in series [1] and “Dde” in series [4]. Moreover, the Kd in series [2] stood at 76.4 nM. In series [3], this molecule showed an IC50 of more than 10000 nM. Moreover, the inhibition result in [5] and in series [6] was “Active” each time. Further, the Activity result in the series with MKN-45 was “Dde”; in series [8], “Non-Toxic”. Moreover, the half-life in series [7] is 16 h.

As a reminder, the inhibition is how much of the control response was suppressed. One may read the Kd as the free concentration of one partner at which half of the binding sites on the other are occupied at equilibrium, for simple one-to-one binding. What is called IC50 is the concentration that inhibits the measured activity by half. High values mean weaker potency, low ones greater potency.
